In patent US20170210751A1, “PRMT5 INHIBITORS AND USES THEREOF” (Epizyme, Inc., priority 2014, published 2017):

target: T1, PRMT5/MEP50 (Homo sapiens, UniProt O14744); experiment: PRMT5 Biochemical Assay (PRMT5/MEP50 enzyme assay on peptide substrate, 3H-SAM Flashplate); conditions: PRMT5/MEP50 4 nM, 3H-SAM 75 nM, peptide 40 nM, 30 min preincubation at 25 degrees Celsius
T1 construct: Flag-PRMT5; made in house; host or cells: Spodoptera frugiperda (SF9) insect cells, baculovirus (pDEST8)
In short: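 FLAG-PRMT5/His-MEP50 from Sf9 cells (4 nM) preincubated 30 min at 25 °C with compounds, then reacted with 75 nM 3H-SAM and 40 nM biotinylated histone H4 1-15 peptide in Bicine pH 7.6, 1% DMSO. Stopped with 600 uM cold SAM; streptavidin Flashplate capture, scintillation counts; % inhibition fitted to 3- or 4-parameter curve.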

T1 sequence (O14744 with tags, fused parts or gaps): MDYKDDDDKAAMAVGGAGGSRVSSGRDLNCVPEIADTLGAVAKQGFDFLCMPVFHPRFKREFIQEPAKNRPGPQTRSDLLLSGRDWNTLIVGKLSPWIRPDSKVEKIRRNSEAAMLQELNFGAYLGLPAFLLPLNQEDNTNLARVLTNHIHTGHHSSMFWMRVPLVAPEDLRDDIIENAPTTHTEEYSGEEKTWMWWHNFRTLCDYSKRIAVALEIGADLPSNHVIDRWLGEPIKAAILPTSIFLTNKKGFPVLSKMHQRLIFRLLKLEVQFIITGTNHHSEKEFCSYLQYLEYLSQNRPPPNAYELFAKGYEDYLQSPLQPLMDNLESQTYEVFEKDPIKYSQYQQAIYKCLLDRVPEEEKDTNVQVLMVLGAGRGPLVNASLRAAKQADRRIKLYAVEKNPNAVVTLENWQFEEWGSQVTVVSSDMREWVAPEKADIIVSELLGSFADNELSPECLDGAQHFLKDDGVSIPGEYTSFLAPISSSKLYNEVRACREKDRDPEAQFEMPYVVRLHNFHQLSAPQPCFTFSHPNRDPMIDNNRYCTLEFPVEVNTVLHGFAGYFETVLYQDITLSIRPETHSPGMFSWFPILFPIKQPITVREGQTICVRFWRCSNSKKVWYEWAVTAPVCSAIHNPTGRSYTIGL
T1 sequence (Q9BQA1 with tags, fused parts or gaps partner limits assumed): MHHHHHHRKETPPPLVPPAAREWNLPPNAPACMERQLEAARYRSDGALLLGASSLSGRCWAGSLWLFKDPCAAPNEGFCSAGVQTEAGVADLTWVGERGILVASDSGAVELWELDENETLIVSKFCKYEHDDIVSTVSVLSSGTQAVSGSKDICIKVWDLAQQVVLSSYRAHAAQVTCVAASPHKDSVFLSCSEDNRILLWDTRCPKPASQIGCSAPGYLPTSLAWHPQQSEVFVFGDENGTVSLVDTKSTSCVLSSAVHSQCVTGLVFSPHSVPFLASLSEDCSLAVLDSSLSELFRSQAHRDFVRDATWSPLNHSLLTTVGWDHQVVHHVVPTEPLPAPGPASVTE

IC50, > 10 µM:
CC(=O)N1CCC(Nc2cc(C(=O)NC[C@H](O)CN3CCCc4c3cnn4C)ncn2)CC1 [Compound 3-58]
Cc1nc2c(o1)CCN(C[C@@H](O)CNC(=O)c1cc(NC3COC3)ncn1)C2 [Compound 4-1, (S)—N-(2-hydroxy-3-(2-methyl-6,7-dihydrooxazolo[4,5-c]pyridin-5(4H)-yl)propyl)-6-(oxetan-3-ylamino)pyrimidine-4-carboxamide]
CC(=O)N1CC(Nc2cc(C(=O)NC[C@H](O)CN3CCc4oc(C)nc4C3)ncn2)C1 [Compound 4-2, (S)-6-((1-acetylazetidin-3-yl)amino)-N-(2-hydroxy-3-(2-methyl-6,7-dihydrooxazolo[4,5-c]pyridin-5(4H)-yl)propyl)pyrimidine-4-carboxamide]
CC(=O)N1CCC(Nc2cc(C(=O)NC[C@H](O)CN3CCc4oc(C)nc4C3)ncn2)CC1 [Compound 4-3, (S)-6-((1-acetylpiperidin-4-yl)amino)-N-(2-hydroxy-3-(2-methyl-6,7-dihydrooxazolo[4,5-c]pyridin-5(4H)-yl)propyl)pyrimidine-4-carboxamide]
CC(=O)N1CCC(Nc2cc(C(=O)NC[C@H](O)CN3CCc4oc(C)nc4C3)ccn2)CC1 [Compound 4-4, (S)-2-((1-acetylpiperidin-4-yl)amino)-N-(2-hydroxy-3-(2-methyl-6,7-dihydrooxazolo[4,5-c]pyridin-5(4H)-yl)propyl)isonicotinamide]
